Data published in patent US9884842B2, “Combretastatin analogs” (The Board of Trustees of the University of Arkansas, priority 2013, dated 2018).

Columns and labels:
OVCAR-3 = assay: cells; conditions: Homo sapiens; for GI50: OVCAR-3; for CC50: OVCAR-3, read-out: LC50
K-562 = assay: NCI growth inhibition and cytotoxicity screen, Leukemia panel; conditions: Homo sapiens; for CC50: K562, read-out: LC50
RPMI-8226 = assay: as above; conditions: Homo sapiens; for GI50: RPMI-8226; for CC50: RPMI-8226, read-out: LC50
LOX-IMVI = assay: NCI growth inhibition and cytotoxicity screen, Melanoma panel; conditions: Homo sapiens; for CC50: read-out: LC50
M14 = assay: as above; conditions: Homo sapiens; for GI50: M14; for CC50: M14, read-out: LC50
SK-MEL-2 = assay: as above; conditions: Homo sapiens; for GI50: SK-MEL-2; for CC50: SK-MEL-2, read-out: LC50
SK-MEL-28 = assay: as above; conditions: Homo sapiens; for GI50: SK-MEL-28; for CC50: SK-MEL-28, read-out: LC50
UACC-257 = assay: as above; conditions: Homo sapiens; for CC50: UACC-257, read-out: LC50
UACC-62 = assay: as above; conditions: Homo sapiens; for GI50: UACC-62; for CC50: UACC-62, read-out: LC50
SF-268 = assay: NCI growth inhibition and cytotoxicity screen, CNS Cancer panel; conditions: Homo sapiens; for GI50: SF-268; for CC50: SF-268, read-out: LC50
SF-539 = assay: as above; conditions: Homo sapiens; for GI50: SF-539; for CC50: SF-539, read-out: LC50
SNB-19 = assay: as above; conditions: Homo sapiens; for GI50: SNB-19; for CC50: SNB-19, read-out: LC50
SNB-75 = assay: as above; conditions: Homo sapiens; for GI50: SNB-75; for CC50: SNB-75, read-out: LC50
U251 = assay: as above; conditions: Homo sapiens; for GI50: U-251; for CC50: U-251, read-out: LC50
A549/ATCC = assay: NCI growth inhibition and cytotoxicity screen, Lung Cancer panel; conditions: Homo sapiens; for GI50: A549; for CC50: A549, read-out: LC50
HOP-92 = assay: as above; conditions: Homo sapiens; for GI50: HOP-92; for CC50: HOP-92, read-out: LC50
NCI-H226 = assay: as above; conditions: Homo sapiens; for GI50: NCI-H226; for CC50: NCI-H226, read-out: LC50
NCI-H460 = assay: as above; conditions: Homo sapiens; for GI50: NCI-H460; for CC50: NCI-H460, read-out: LC50
HT29 = assay: NCI growth inhibition and cytotoxicity screen, Colon Cancer panel; conditions: Homo sapiens; for GI50: HT-29; for CC50: HT-29, read-out: LC50
KM12 = assay: as above; conditions: Homo sapiens; for GI50: KM12; for CC50: KM12, read-out: LC50
786-0 = assay: NCI growth inhibition and cytotoxicity screen, Renal Cancer panel; conditions: Homo sapiens; for GI50: 786-0; for CC50: 786-0, read-out: LC50
A498 = assay: as above; conditions: Homo sapiens; for GI50: A498; for CC50: A498, read-out: LC50
CAKI-1 = assay: as above; conditions: Homo sapiens; for GI50: CAKI-1; for CC50: CAKI-1, read-out: LC50
TK-10 = assay: as above; conditions: Homo sapiens; for GI50: TK-10; for CC50: TK-10, read-out: LC50
MCF7 = assay: NCI growth inhibition and cytotoxicity screen, Breast Cancer panel; conditions: Homo sapiens; for GI50: MCF7; for CC50: MCF7, read-out: LC50
BT-549 = assay: as above; conditions: Homo sapiens; for GI50: BT-549; for CC50: BT-549, read-out: LC50
T-47D = assay: as above; conditions: Homo sapiens, T47D; for CC50: read-out: LC50
IGROV1 = assay: NCI growth inhibition and cytotoxicity screen, Ovarian Cancer panel; conditions: Homo sapiens; for GI50: IGROV-1; for CC50: IGROV-1, read-out: LC50
OVCAR-5 = assay: as above; conditions: Homo sapiens; for GI50: OVCAR-5; for CC50: OVCAR-5, read-out: LC50
NCI/ADR-RES = assay: as above; conditions: Homo sapiens; for CC50: read-out: LC50
SK-OV-3 = assay: as above; conditions: Homo sapiens; for GI50: SK-OV-3; for CC50: SK-OV-3, read-out: LC50

## COc1cc(OC)cc(/C(C#N)=C/c2ccc3ccccc3n2)c1 [PNR-4-84, (Z)-2-(3,5-dimethoxyphenyl)-3-(quinolin-2-yl)acrylonitrile]
OVCAR-3
  GI50: 309 nM
  CC50: 34 µM
K-562; K562
  GI50: 353 nM
K-562
  CC50: > 100 µM
RPMI-8226
  GI50: 433 nM
  CC50: > 100 µM
LOX-IMVI
  GI50: 610 nM
  CC50: > 100 µM
M14
  GI50: 360 nM
  CC50: > 100 µM
SK-MEL-2
  GI50: 522 nM
  CC50: > 100 µM
SK-MEL-28
  GI50: 896 nM
  CC50: > 100 µM
UACC-257
  CC50: > 100 µM
UACC-62
  GI50: 449 nM
  CC50: > 100 µM
SF-268
  GI50: 476 nM
  CC50: > 100 µM
SF-539
  GI50: 286 nM
  CC50: 8.03 µM
SNB-19
  GI50: 728 nM
  CC50: > 100 µM
SNB-75
  GI50: 311 nM
  CC50: > 100 µM
U251
  GI50: 425 nM
  CC50: > 100 µM
A549/ATCC
  GI50: 649 nM
  CC50: > 100 µM
HOP-92
  GI50: 542 nM
  CC50: > 100 µM
NCI-H226
  GI50: 10.8 µM
  CC50: > 100 µM
NCI-H460
  GI50: 339 nM
  CC50: > 100 µM
HT29
  GI50: 367 nM
  CC50: > 100 µM
KM12
  GI50: 425 nM
  CC50: > 100 µM
786-0
  GI50: 501 nM
  CC50: > 100 µM
A498
  GI50: 275 nM
  CC50: > 100 µM
CAKI-1
  GI50: 318 nM
  CC50: > 100 µM
TK-10
  GI50: 3280 nM
  CC50: > 100 µM
MCF7
  GI50: 537 nM
  CC50: > 100 µM
BT-549
  GI50: 342 nM
  CC50: 80.6 µM
T-47D
  GI50: 1230 nM
  CC50: > 100 µM
IGROV1
  GI50: 958 nM
  CC50: > 100 µM
OVCAR-5
  GI50: 716 nM
  CC50: 42.8 µM
NCI/ADR-RES
  GI50: 283 nM
  CC50: > 100 µM
SK-OV-3
  GI50: 804 nM
  CC50: > 100 µM

## COc1cc(/C=C/c2cc3ccccc3o2)cc(OC)c1OC [Formula (I)(c)]
OVCAR-3
  GI50: 0.42 nM
  CC50: 48.1 µM
K-562
  CC50: > 100 µM
RPMI-8226
  GI50: 0.7 nM
  CC50: > 100 µM
LOX-IMVI
  GI50: 0.89 nM
  CC50: 60.4 µM
M14
  GI50: 0.47 nM
  CC50: 88.4 µM
SK-MEL-2
  GI50: 0.76 nM
  CC50: > 100 µM
SK-MEL-28
  GI50: 0.83 nM
  CC50: > 100 µM
UACC-257; UACC-257
  GI50: 16.4 nM
UACC-257
  CC50: > 100 µM
UACC-62
  GI50: 0.5 nM
  CC50: > 100 µM
SF-268
  GI50: 0.86 nM
  CC50: > 100 µM
SF-539
  GI50: 0.27 nM
  CC50: > 100 µM
SNB-19
  GI50: 0.58 nM
  CC50: > 100 µM
SNB-75
  GI50: 0.47 nM
  CC50: > 100 µM
U251
  GI50: 0.66 nM
  CC50: 81.2 µM
A549/ATCC
  GI50: 0.61 nM
  CC50: > 100 µM
HOP-92
  GI50: 0.17 nM
  CC50: > 100 µM
NCI-H226
  GI50: 0.0011 µM
  CC50: > 100 µM
NCI-H460
  GI50: 0.41 nM
  CC50: > 100 µM
HT29
  GI50: 0.37 nM
  CC50: > 100 µM
KM12
  GI50: 0.5 nM
  CC50: > 100 µM
786-0
  GI50: 0.85 nM
  CC50: 79.8 µM
A498
  GI50: 0.4 nM
  CC50: 48.4 µM
CAKI-1
  GI50: 0.58 nM
  CC50: > 100 µM
TK-10
  GI50: 8.4 nM
  CC50: > 100 µM
MCF7
  GI50: 0.37 nM
  CC50: > 100 µM
BT-549
  GI50: 1.09 nM
  CC50: 79.5 µM
T-47D
  GI50: 0.69 nM
  CC50: > 100 µM
IGROV1
  GI50: 0.8 nM
  CC50: > 100 µM
OVCAR-5
  GI50: 2.94 nM
  CC50: > 100 µM
NCI/ADR-RES
  GI50: 0.51 nM
  CC50: > 100 µM
SK-OV-3
  GI50: 0.65 nM
  CC50: > 100 µM
